As usually defined, the IC50 is the concentration needed to halve the response being measured.

The source of these data is patent publication US7855230B2, “Derivatives of 3,3-diphenylpropylamines” (UCB Pharma GmbH, priority 1999, dated 2010).

The target in data set [1] is T1, human muscarinic M3 receptor (Homo sapiens, UniProt P20309).
T1 construct: expressed in transfected cells; host or cells: BSR-M3H cells (membrane preparation)
As to the kind of experiment: [3H]-methylscopolamine binding to recombinant human M3 receptors. To be noted: BSR-M3H cell membranes, 60 minutes at 25° C. The protocol:
WO 94/11337 discloses that the active metabolite has high affinity to muscarinic receptors in the guinea-pig bladder. Different compounds of the present invention were tested in a well established standardized assay, measuring the binding of [^3H]-methylscopolamine to recombinant human M3 receptors. BSR-M3H cells transfected with a plasmid encoding the human muscarinic M3 receptor were used to prepare membranes in modified Tris-HCl pH 7.4 buffer using standard techniques. An aliquot of the membrane preparation was incubated with [^3H]-methylscopolamine in the presence or absence of different concentrations of several compounds of the invention for 60 minutes at 25° C. Nonspecific binding was estimated in the presence of 1 μM atropine. Membranes were filtered and washed three times and the filters were counted to determine the amount of [^3H]-methylscopolamine specifically bound.

Data set [2] concerns urinary bladder over the effect on the salivation. The conditions noted are these: preclinical, Nilvebrant et al. 1997; cited from earlier work.
For data set [3], the system named is guinea-pig ileum. As to the kind of experiment: Anticholinergic activity in guinea-pig ileum (methacholine-induced contractile response). The class given is cell-based. The conditions noted are these: Cavia porcellus; methacholine 0.6 μM, Krebs solution pH 7.4, 32° C. The protocol: The compounds were tested for their anticholinergic activity in a standard tissue assay, the guinea-pig ileum. A segment of ileum was obtained from Duncan Hartley guinea-pigs which were scarified by cervical dislocation. The tissue was placed under 1 g tension in a 10 ml bath containing Krebs, solution (pH 7.4, 32° C.) and the concentration-dependent ability of different compounds to reduce the methacholine-induced (0.6 μM) contractile response was recorded.

A short description of data set [4]: Penetration through human skin, flow through cell. The class given is in vitro ADME. To be noted: human skin 200 μm thick, 32° C., acceptor phosphate buffer pH 6.2. The protocol: Different compounds of the invention were tested for their ability to penetrate the human skin (200 μm thick) in the “Flow through cell” at 32° C. according to Tiemessen et al. (Acta Pharm. Technol. 1998; 34:99-101). Phosphate buffer (pH 6.2) was used as the acceptor medium. Samples were drawn at different time points and analysed by RP-HPLC with UV detection (220 nm). Permeation profiles were plotted and mean flux rates of different substances were calculated by linear regression analysis.

Data set [5] is described as follows: Incubation of labelled substrates: metabolic degradation to the carboxylic acid. The class given is in vitro ADME, human. The conditions noted are these: 3 hrs at 37.0° C., 40 μM; compared with unlabelled hydroxy metabolite. The protocol: The metabolic degradation of the unlabelled hydroxy metabolite (i.e. Intermediate D) and the deuteriated hydroxy-metabolite (Intermediate d2B) were compared in vitro. Used were the respective enantiomers and the racemates.
The hydroxy metabolite and the deuteriated hydroxy-metabolite expressed significant differences in the rate to produce the corresponding carboxylic acid.
The measurement was performed with an incubation time of 3 hrs at 37.0° C. in a concentration of 40 μM.

T1 sequence (P20309 whole entry): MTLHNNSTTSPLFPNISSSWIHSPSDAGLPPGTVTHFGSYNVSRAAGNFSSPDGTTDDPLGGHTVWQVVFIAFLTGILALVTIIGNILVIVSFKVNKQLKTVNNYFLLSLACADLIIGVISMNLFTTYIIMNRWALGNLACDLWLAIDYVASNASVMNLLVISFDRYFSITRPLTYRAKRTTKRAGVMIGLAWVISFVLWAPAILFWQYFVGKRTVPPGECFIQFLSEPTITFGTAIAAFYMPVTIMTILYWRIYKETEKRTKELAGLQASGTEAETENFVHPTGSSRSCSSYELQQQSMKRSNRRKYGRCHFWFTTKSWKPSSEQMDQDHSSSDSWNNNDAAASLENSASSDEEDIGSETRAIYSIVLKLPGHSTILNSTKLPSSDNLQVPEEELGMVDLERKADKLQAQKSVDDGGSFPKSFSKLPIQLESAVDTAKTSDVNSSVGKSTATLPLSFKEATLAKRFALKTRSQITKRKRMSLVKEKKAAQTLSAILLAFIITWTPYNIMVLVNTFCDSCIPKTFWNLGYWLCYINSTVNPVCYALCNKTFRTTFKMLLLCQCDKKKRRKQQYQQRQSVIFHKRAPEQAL

As for `CC(=O)OCc1ccc(OC(=O)c2ccccc2)c(C(CCN(C(C)C)C(C)C)c2ccccc2)c1` (racemic) [AcO-/-OBz, (±)-Benzoic acid 2-(3-diisopropylamino-1-phenylpropyl)-4-acetoxymethylphenyl ester], the IC50 in data set [1] is 5400 nM.

`Cc1ccc(O)c([C@H](CCN(C(C)C)C(C)C)c2ccccc2)c1` [tolterodine, Tolterodine]: the “tissue selectivity in vivo for the urinary bladder over the effect on the salivation” value in data set [2] is reported as “favourable tissue selectivity”.

In data set [3], `CC(C)N(CC[C@H](c1ccccc1)c1cc(COC(=O)c2ccccc2)ccc1OC(=O)c1ccccc1)C(C)C` [(+)BzO-/-OBz, R-(+)-benzoic acid 4-benzoyloxymethyl-2-(3-diisopropylamino-1-phenylpropyl)-phenyl ester] registered a concentration for half-maximal inhibition (IC50) of 220 nM.

`CCN(CC)CC#CCOC(=O)C(O)(c1ccccc1)C1CCCCC1` (centres unmarked) [oxybutynin]: the “tissue selectivity in vivo for the urinary bladder over the effect on the salivation” value in data set [2] is “reversed selectivity”.

For `CC(C)N(CCC(c1ccccc1)c1cc(COC(=O)c2ccccc2)ccc1OC(=O)c1ccccc1)C(C)C` (racemic) [BzO-/-OBz, (±)-Benzoic acid 4-benzoyloxymethyl-2-(3-diisopropylamino-1-phenylpropyl)-phenyl ester], the half-maximal inhibitory concentration (IC50) in data set [1] amounted to 2400 nM.

In data set [3], `CC(=O)OCc1ccc(OC(=O)C(C)C)c([C@H](CCN(C(C)C)C(C)C)c2ccccc2)c1` [(+)AcO-/-OiBut, R-(+)-isobutyric acid 4-acetoxymethyl-2-(3-diisopropylamino-1-phenylpropyl)-phenyl ester] gave a concentration for half-maximal inhibition (IC50) of 240 nM.

The molecule `CC(C)C(=O)OCc1ccc(OC(=O)C(C)C)c(C(CCN(C(C)C)C(C)C)c2ccccc2)c1` (racemic) [iButO-/-OiBut, (±)-Isobutyric acid 2-(3-diisopropylamino-1-phenylpropyl)-4-isobutyryloxymethylphenyl ester] displayed a Flux rate in data set [4] of 60 μg/cm^2/24 hrs.

Consider `CC(C)N(CC[C@H](c1ccccc1)c1cc(CO)ccc1O)C(C)C` [(+)HO-/-OH, R-(+)-2-(3-Diisopropylamino-1-phenylpropyl)-4-hydroxymethyl-phenol, reference compound], for which the concentration for half-maximal inhibition (IC50) in data set [3] was determined as 20 nM; in data set [1] it was 8.7 nM.

As for `CC(C)C(=O)Oc1ccc(CO)cc1[C@H](CCN(C(C)C)C(C)C)c1ccccc1` [(+)HO-/-OiBut, R-(+)-Isobutyric acid 2-(3-diisopropylamino-1-phenylpropyl)-4-hydroxymethylphenyl ester], the IC50 in data set [3] was 57 nM; in data set [1] it was 159 nM.

With `CCC(=O)OCc1ccc(OC(=O)CC)c(C(CCN(C(C)C)C(C)C)c2ccccc2)c1` (racemic) [PropO-/-OProp, (±)-Propionic acid 2-(3-diisopropylamino-1-phenylpropyl)-4-propionyloxymethylphenyl ester], the Flux rate in data set [4] is listed as 70 μg/cm^2/24 hrs.

Consider `CC(C)N(CC[C@@H](c1ccccc1)c1cc(CO)ccc1O)C(C)C` [(−)HO-/-OH, S-(−)-2-(3-Diisopropylamino-1-phenylpropyl)-4-hydroxymethyl-phenol, reference compound], for which the IC50 turned out to be 680 nM in data set [3] and 1300 nM in data set [1].

Consider `[2H]C([2H])(O)c1ccc(O)c(C(CCN(C(C)C)C(C)C)c2ccccc2)c1` (racemic) [deuteriated hydroxy-metabolite, (±)-2-(3-Diisopropylamino-1-phenylpropyl)-4-hydroxy-[^2H2]methyl-phenol], for which the “decreased velocity of formation of the carboxylic acid” value in data set [5] came out at 10%.

Molecule `CC(C)N(CCC(c1ccccc1)c1cc(CO)ccc1O)C(C)C` (racemic) [HO-/-OH, (±)-2-(3-Diisopropylamino-1-phenylpropyl)-4-hydroxymethylphenol, reference compound] gave a Flux rate in data set [4] of 3 μg/cm^2/24 hrs.

`CC(C)C(=O)Oc1ccc(CO)cc1C(CCN(C(C)C)C(C)C)c1ccccc1` (racemic) [HO-/-OiBut, (±)-Isobutyric acid 2-(3-diisopropylamino-1-phenylpropyl)-4-hydroxymethylphenyl ester] displayed a Flux rate in data set [4] of 150 μg/cm^2/24 hrs.

Take `CC(=O)OCc1ccc(OC(=O)C(C)C)c(C(CCN(C(C)C)C(C)C)c2ccccc2)c1` (racemic) [AcO-/-OiBut, (±)-Isobutyric acid 4-acetoxymethyl-2-(3-diisopropylamino-1-phenylpropyl)-phenyl ester]: in data set [1], the IC50 was found to be 3600 nM.

For the molecule `CC(C)N(CC[C@H](c1ccccc1)c1cc(CO)ccc1OC(=O)c1ccccc1)C(C)C` [(+)HO-/-OBz, R-(+)-Benzoic acid 2-(3-diisopropylamino-1-phenylpropyl)-4-hydroxymethylphenyl ester], the IC50 amounted to 180 nM in data set [3] and 172 nM in data set [1].
